Measurements as given in ChEMBL document CHEMBL1201862, “PubChem BioAssay data set” (2004).
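1) Cells in 96-well plates. 2) Compound, 48 h, 5 concentrations. 3) Linear interpolation between surrounding doses. 4) Unreached endpoint = highest concentration. GI50 = concentration required for 50% inhibition of growth.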 Activity calls are given as the source filed them. Rule as the data show it: active = GI50 up to about 1.1 µM and inactive = higher.

Assays:
Experiment in all cases: NCI anticancer screen, dose series, 48 h
SF-295 = tested on: SF-295
RXF 393 = tested on: RXF 393
KM12 = tested on: KM12
RPMI-8226 = tested on: RPMI-8226
M14 = tested on: M14
CAKI-1 = tested on: CAKI-1
T47D = tested on: T47D
SK-OV-3 = tested on: SK-OV-3
PC-3 = tested on: PC-3
MDA-MB-231 = tested on: MDA-MB-231
SK-MEL-5 = tested on: SK-MEL-5
SNB-75 = tested on: SNB-75
TK-10 = tested on: TK-10
SN12C = tested on: SN12C
DU-145 = tested on: DU-145
IGROV-1 = tested on: IGROV-1
NCI-H226 = tested on: NCI-H226
SF-268 = tested on: SF-268
SR = tested on: SR
SNB-19 = tested on: SNB-19
NCI-H23 = tested on: NCI-H23
HL-60 = tested on: HL-60
MDA-N = tested on: MDA-N
SK-MEL-28 = tested on: SK-MEL-28
BT-549 = tested on: BT-549
CCRF-CEM = tested on: CCRF-CEM
HCT-116 = tested on: HCT-116
HOP-62 = tested on: HOP-62
HT-29 = tested on: HT-29
Hs-578T = tested on: Hs-578T
A549 = tested on: A549
SK-MEL-2 = tested on: SK-MEL-2
Malme-3M = tested on: Malme-3M
HCT-15 = tested on: HCT-15
NCI-H460 = tested on: NCI-H460
MCF7 = tested on: MCF7
OVCAR-8 = tested on: OVCAR-8
OVCAR-4 = tested on: OVCAR-4
A498 = tested on: A498
786-0 = tested on: 786-0
K562 = tested on: K562
SW-620 = tested on: SW-620
UACC-62 = tested on: UACC-62
NCI/ADR-RES = tested on: NCI/ADR-RES
COLO 205 = tested on: COLO 205
NCI-H522 = tested on: NCI-H522
UACC-257 = tested on: UACC-257
ACHN = tested on: ACHN
EKVX = tested on: EKVX
MDA-MB-435 = tested on: MDA-MB-435
HCC 2998 = tested on: HCC 2998
MOLT-4 = tested on: MOLT-4
OVCAR-5 = tested on: OVCAR-5
HOP-92 = tested on: HOP-92
UO-31 = tested on: UO-31
OVCAR-3 = tested on: OVCAR-3
SF-539 = tested on: SF-539
U-251 = tested on: U-251
LOX IMVI = tested on: LOX IMVI

`CCOc1cccc(/C=N\c2ccccc2SSc2ccccc2/N=C\c2cccc(OCC)c2O)c1O` was tested, and the GI50 (SF-295) was 12.6 µM (inactive), the GI50 (RXF 393) was 7.46 µM (inactive) and the GI50 (KM12) was 6.82 µM (inactive). The GI50 (RPMI-8226) was 3.73 µM (inactive), the GI50 (M14) was 4.06 µM (inactive) and the GI50 (CAKI-1) was 9.95 µM (inactive). The GI50 (T47D) was 1.26 µM (inactive), the GI50 (SK-OV-3) was 23.2 µM (inactive) and the GI50 (PC-3) was 3.17 µM (inactive). For the same molecule, the GI50 (MDA-MB-231) was 8.95 µM (inactive), the GI50 (SK-MEL-5) was 2.21 µM (inactive) and the GI50 (SNB-75) was 19.7 µM (inactive). For the same molecule, the GI50 (TK-10) was 29 µM (inactive), the GI50 (SN12C) was 9.79 µM (inactive) and the GI50 (DU-145) was 16.6 µM (inactive). The GI50 (IGROV-1) was 2.92 µM (inactive), the GI50 (NCI-H226) was 6.41 µM (inactive) and the GI50 (SF-268) was 4.22 µM (inactive). The GI50 (SR) was 4.25 µM (inactive), the GI50 (SNB-19) was 11.2 µM (inactive) and the GI50 (NCI-H23) was 5.08 µM (inactive). For the same molecule, the GI50 (HL-60) was 3.7 µM (inactive), the GI50 (MDA-N) was 14.2 µM (inactive) and the GI50 (SK-MEL-28) was 12.4 µM (inactive). For the same molecule, the GI50 (BT-549) was 1.58 µM (inactive), the GI50 (CCRF-CEM) was 3.32 µM (inactive) and the GI50 (HCT-116) was 1.73 µM (inactive). The GI50 (HOP-62) was 6.92 µM (inactive), the GI50 (HT-29) was 14.6 µM (inactive) and the GI50 (Hs-578T) was 16.9 µM (inactive). The GI50 (A549) was 10.7 µM (inactive), the GI50 (SK-MEL-2) was 16.5 µM (inactive) and the GI50 (Malme-3M) was 10.2 µM (inactive). For the same molecule, the GI50 (HCT-15) was 3.44 µM, the GI50 (NCI-H460) was 5.48 µM (inactive) and the GI50 (MCF7) was 0.326 µM (active). For the same molecule, the GI50 (OVCAR-8) was 2.52 µM (inactive), the GI50 (OVCAR-4) was 4 µM (inactive) and the GI50 (A498) was 24.2 µM (inactive). For the same molecule, the GI50 (786-0) was 7.6 µM (inactive), the GI50 (K562) was 6.55 µM (inactive) and the GI50 (SW-620) was 8.49 µM (inactive). For the same molecule, the GI50 (UACC-62) was 4.28 µM (inactive), the GI50 (NCI/ADR-RES) was 3.55 µM (inactive) and the GI50 (COLO 205) was 3.02 µM (inactive). For the same molecule, the GI50 (NCI-H522) was 2.95 µM (inactive), the GI50 (UACC-257) was 5.77 µM (inactive) and the GI50 (ACHN) was 13.5 µM (inactive). The GI50 (EKVX) was 3.86 µM (inactive), the GI50 (MDA-MB-435) was 11.5 µM (inactive) and the GI50 (HCC 2998) was 17.2 µM (inactive). For the same molecule, the GI50 (MOLT-4) was 3.38 µM (inactive), the GI50 (OVCAR-5) was 4.56 µM (inactive) and the GI50 (HOP-92) was 11.5 µM (inactive). The GI50 (UO-31) was 13.7 µM (inactive), the GI50 (OVCAR-3) was 2.62 µM (inactive) and the GI50 (SF-539) was 26.5 µM (inactive). The GI50 (U-251) was 3.64 µM (inactive) and the GI50 (LOX IMVI) was 4.47 µM (inactive).
With `CCc1nc(N)nc(N)c1-c1ccc(N2CCNCC2)c([N+](=O)[O-])c1` the GI50 (SF-295) was 7.96 µM (inactive), the GI50 (RXF 393) was 24.5 µM (inactive) and the GI50 (KM12) was 12 µM (inactive). For the same molecule, the GI50 (RPMI-8226) was 29.5 µM (inactive), the GI50 (M14) was 7.08 µM (inactive) and the GI50 (CAKI-1) was 64.3 µM (inactive). The GI50 (T47D) was 58.5 µM (inactive), the GI50 (SK-OV-3) was 91.2 µM (inactive) and the GI50 (PC-3) was 5.28 µM (inactive). The GI50 (MDA-MB-231) was 26.5 µM (inactive), the GI50 (SK-MEL-5) was 8.59 µM (inactive) and the GI50 (SNB-75) was 36.6 µM (inactive). For the same molecule, the GI50 (TK-10) was > 100 µM (inactive), the GI50 (SN12C) was 22 µM (inactive) and the GI50 (DU-145) was 29.2 µM (inactive). For the same molecule, the GI50 (IGROV-1) was 7.55 µM (inactive), the GI50 (NCI-H226) was 65.9 µM (inactive) and the GI50 (SF-268) was 9.29 µM (inactive). The GI50 (SR) was 4.35 µM (inactive), the GI50 (SNB-19) was 41.5 µM (inactive) and the GI50 (NCI-H23) was 7.85 µM (inactive). For the same molecule, the GI50 (HL-60) was 4.59 µM (inactive), the GI50 (MDA-N) was 4.85 µM (inactive) and the GI50 (SK-MEL-28) was 40.5 µM (inactive). For the same molecule, the GI50 (BT-549) was 45.9 µM (inactive), the GI50 (CCRF-CEM) was 4.74 µM (inactive) and the GI50 (HCT-116) was 1.77 µM (inactive). The GI50 (HOP-62) was 19.4 µM (inactive), the GI50 (HT-29) was 4.47 µM (inactive) and the GI50 (Hs-578T) was 18.5 µM (inactive). The GI50 (A549) was 3.09 µM (inactive), the GI50 (SK-MEL-2) was 36.9 µM (inactive) and the GI50 (Malme-3M) was 15.5 µM (inactive). For the same molecule, the GI50 (HCT-15) was 35.7 µM, the GI50 (NCI-H460) was 2.11 µM (inactive) and the GI50 (MCF7) was 12.4 µM (inactive). For the same molecule, the GI50 (OVCAR-8) was 6.7 µM (inactive), the GI50 (OVCAR-4) was 32.7 µM (inactive) and the GI50 (A498) was 39.7 µM (inactive). The GI50 (786-0) was 5.2 µM (inactive), the GI50 (K562) was 0.718 µM (active) and the GI50 (SW-620) was 5.4 µM (inactive). For the same molecule, the GI50 (UACC-62) was 6.08 µM (inactive), the GI50 (NCI/ADR-RES) was > 100 µM (inactive) and the GI50 (COLO 205) was 15.3 µM (inactive). For the same molecule, the GI50 (NCI-H522) was 24.4 µM (inactive), the GI50 (UACC-257) was 13.9 µM (inactive) and the GI50 (ACHN) was 17.9 µM (inactive). For the same molecule, the GI50 (EKVX) was 23.8 µM (inactive), the GI50 (MDA-MB-435) was 4.27 µM (inactive) and the GI50 (HCC 2998) was 11.5 µM (inactive). For the same molecule, the GI50 (MOLT-4) was 5.65 µM (inactive), the GI50 (OVCAR-5) was 30.3 µM (inactive) and the GI50 (HOP-92) was 27.4 µM (inactive). The GI50 (UO-31) was 78.7 µM (inactive), the GI50 (OVCAR-3) was 35.3 µM (inactive) and the GI50 (SF-539) was 10.6 µM (inactive). The GI50 (U-251) was 6.03 µM (inactive) and the GI50 (LOX IMVI) was 3.48 µM (inactive).
